Patent US8722088B2, “Pharmaceutical compositions and methods for the treatment of prostate cancer” (Ferring International Center S.A., priority 2009, dated 2014)
Where two headings read alike, the source gives them in different places. Where a SMILES comes first, the peptide text is derived from it. [ ]: non-standard residue; d: D form. The star is where a group is joined. dPhe(4-NHCONH2) = NC(=O)Nc1ccc(C[C@@H](N)C(=O)O)cc1; Dihydroorotyl(S) = O=C1C[C@@H](C(=O)*)NC(=O)N1; dPhe(4-Cl) = N[C@H](Cc1ccc(Cl)cc1)C(=O)O; Phe(4-NH2) = Nc1ccc(C[C@H](N)C(=O)O)cc1; d2Nal = N[C@H](Cc1ccc2ccccc2c1)C(=O)O; Lys(iPr) = CC(C)NCCCC[C@H](N)C(=O)O; d3Pal = N[C@H](Cc1cccnc1)C(=O)O

How the values were obtained:
clinical = settings: human, in vivo, 240 mg
Method: A three-month dosing regimen Phase 2 study investigated three different dosing regimens. After a starting dose of […] (with a concentration of 40 mg/mL of solvent), a further dose (i.e., maintenance dose) of 240 mg was given on Day 28, and then at Months 3, 6, and 9 or at Months 4, 7, and 10. Maintenance doses of 240 mg were evaluated initially at concentrations of 40 mg/mL and 60 mg/mL in this study, based on the observed results by different PK profiles of different concentrations. The patients were randomized in parallel to one of three different three-month maintenance dosing regimens of degarelix:
Thus, patients with lower degarelix plasma levels were more likely to have a testosterone level>0.5 ng/mL during the one year treatment period. […] This is consistent with the observation that for most patients, the time of first occurrence of a testosterone level>0.5 ng/mL was three months after a previous dose, at the time of trough degarelix plasma levels. The median trough degarelix plasma levels in the study ranged from about 6.5-7.5 ng/mL.

[1] = male, human, in vivo, sc
Method: The present study included a starting degarelix dose of 240 mg (with a concentration of 40 mg/mL of solvent), followed by maintenance doses of degarelix: i.e., 360 mg (with a concentration of 60 mg/mL of solvent) or 480 mg (with a concentration of 60 mg/mL of solvent), the latter administered at Months 1, 4, 7, and 10.
The study was open labeled and patients received a starting dose of 240 mg (with a concentration of 40 mg/mL of solvent) at Month 0 followed by one of two degarelix maintenance dose treatment regimens: 360 mg (with a concentration of 60 mg/mL of solvent) at Months 1, 4, 7, and 10; or 480 mg (with a concentration of 60 mg/mL of solvent) at Months 1, 4, 7, and 10.
The starting dose was administered subcutaneously as two injections of 120 mg (with a concentration of 40 mg/ml of solvent, given as 2×3 mL injections). After 28 days a maintenance dose of 360 mg (with a concentration of 60 mg/mL, given as 2×3 mL injections) or 480 mg (with a concentration of 60 mg/mL, given as 2×4 mL injections) was administered, also in two injections (each of 240 mg). Thereafter, with three monthly intervals, maintenance doses were given, again in the form of two injections. […] At each visit, serum testosterone, prostate specific androgen (PSA), and plasma concentration of degarelix were measured by techniques well known in the art.

[2] = human, in vivo, 80 mg

estimated median degarelix trough concentration (clinical): < 9 ng/mL
level at 1 year (clinical): ~7 ng/mL
level at 3 months after a previous dose (clinical): 6.5 to 7.5 ng/mL
estimated median degarelix trough concentration ([1]; 360 mg): above 9 ng/mL
estimated median degarelix trough concentration ([1]; 480 mg): above 9 ng/mL
mean trough levels of degarelix [2]: approximately 12 ng/mL
SMILES: CC(=O)N[C@H](Cc1ccc2ccccc2c1)C(=O)N[C@H](Cc1ccc(Cl)cc1)C(=O)N[C@H](Cc1cccnc1)C(=O)N[C@@H](CO)C(=O)N[C@@H](Cc1ccc(NC(=O)[C@@H]2CC(=O)NC(=O)N2)cc1)C(=O)N[C@H](Cc1ccc(NC(N)=O)cc1)C(=O)N[C@@H](CC(C)C)C(=O)N[C@@H](CCCCNC(C)C)C(=O)N1CCC[C@H]1C(=O)N[C@H](C)C(N)=O [Degarelix, D-Alaninamide, N-acetyl-3-(2-naphthalenyl)-D-alanyl-4-chloro-D-phenylalanyl-3-(3-pyridinyl)-D-alanyl-L-seryl-4-[[[(4S)-hexahydro-2,6-dioxo-4-pyrimidinyl]carbonyl]amino]-L-phenylalanyl-4-[(aminocarbonyl)amino]-D-phenylalanyl-L leucyl-N6-(1-methylethyl)-L-lysyl-L-prolyl] (Ac-[d2Nal][dPhe(4-Cl)][d3Pal]S[Phe(4-NH2)](Dihydroorotyl(S))[dPhe(4-NHCONH2)]L[Lys(iPr)]P[dA]-NH2)
